Consider 7 compounds from publication PMC6178183, “Development of a HPLC-MS/MS Method to Determine 11 Bioactive Compounds in Tongmai Yangxin Pill and Application to a Pharmacokinetic Study in Rats” (Evidence-based Complementary and Alternative Medicine : eCAM, 2018).

Data set [1] can be described thus: Pharmacokinetic study in rats after oral administration of TMYX extract (HPLC-MS/MS of plasma). Format: in vivo, Sprague–Dawley rats. As to conditions: rat plasma; for AUC(0-inf) / half-life / AUC / k el: male, Sprague-Dawley; for AUC(0-inf) / half-life / AUC / k el / C max1 / T max1 / C max2 / T max2: oral TMYX extract 8.3 g/kg single dose; for AUC(0-inf) / half-life / AUC / k el / C max1 / C max2 / T max2: n=6; for AUC: read-out: AUC (0-tn); for k el: read-out: K e (converted); for T max1: n=6, mean ± SD; for peaks in the mean plasma concentration-time profile: oral TMYX extract 8.3 g/kg; for C max2 / T max2: second peak. As for the experimental part: The HPLC-MS/MS system consists of an Agilent 1200 high-performance liquid chromatography coupled with an Aglient 6430 series triple quadrupole mass spectrometer with an electrospray ionization (ESI) source. The chromatographic separation was achieved on a CORTECS C18 column (4.6 mm × 150 mm, 2.7 μm), and the column temperature was kept at 30°C. Mobile phases which consisted of 0.1% formic acid in water (A) and acetonitrile (B) were used in the following gradient elution method: 0-10 min, 10%-85% B; 10-13 min, 85%-95% B; 13-19 min, 95%-95% B. The flow rate was set at 0.3 mL/min, and the injection volume was 10 μL. All data were analyzed by Mass Hunter workstation software (Agilent Technologies, USA).
The mass spectrometer was carried out in both positive and negative ionization multiple-reaction monitoring (MRM) mode. The source parameters were as follows: the capillary voltage set at 300 V for positive ionization mode and -300 V for negative ionization mode, the drying gas temperature was 320°C, the flow was 11 L/min, and nebulizing gas pressure was 30 psi.
The plasma (100 μL) was spiked with 20 μL of methanol, 20 μL of the IS (icariin, 1 μg/mL), and 20 μL of formic acid and then vortex-mixed. The mixture was extracted with 800 μL of ethyl acetate by vortex mixing for 5 min at room temperature. After centrifugation at 14,000 rpm for 10 min, the supernatant was collected to a clean tube and evaporated to dryness under a nitrogen stream. The residue was reconstituted in 50 μL of 50% methanol, vortexed for 5 min, and centrifuged at 14,000 rpm for 10 min. Finally, 10 μL supernatant was injected into the LC-MS/MS system for analysis.
Male Sprague–Dawley rats (230-250 g) were obtained from Beijing HFK Experimental Animal Technology Co., Ltd. The rats were maintained under the control environmental conditions and they fasted for 12 h with free access to water before the experiments. TMYX extracts were dissolved in CMC-Na and administrated orally to rats at 8.3 g/kg. The blood samples (200 μL) were collected from the rat fossa orbitalis vein at 0, 0.03, 0.083, 0.17, 0.25, 0.5, 1, 2, 4, 6, 8, 10, 12, 24, 36, and 48 h after oral administration to heparinized tubes. And then the blood samples were centrifuged at 7,000 rpm for 10 min to get the plasma sample immediately. Finally, the plasma obtained was stored at −70°C until analysis. Pharmacokinetic parameters were calculated by the computer program “Drug and Statistics 2.0” (DAS 2.0) (Medical College of Wannan, China).

The nature of data set [2]: Stability of analytes in rat plasma QC samples under storage conditions. The data set is classed as in vitro ADME. As to conditions: n=6, gallic acid, ononin, schisandrin, stilbene glycoside, liquiritigenin, rhein, verbascoside; for Measured Concentration, auto-sampler for 12 h: prepared rat plasma samples; for Measured Concentration, -70°C for 14 days / Measured Concentration, room temperature for 6 h / Measured Concentration, three freeze-thaw cycles: rat plasma. As to the method:
Quality control (QC) samples at three concentrations (low, medium, and high concentration) were made up of appropriate mixed standard solutions with blank blood sample as calibration solutions to meet the required concentrations. All the solutions were kept at 4°C.
The stability of analytes in plasma samples was determined by analyzing QC samples of three concentration levels at different conditions: stored at autosampler for 12 h, at room temperature for 6 h, under three freeze-thaw cycles and stored at -70°C for 14 days. All stability studies were measured in six replicates.

On the set-up of data set [3]: method as in PMID 23608243. As to conditions: rat dosed processed Radix polygoni multiflori; cited from earlier work.
The subject of data set [4] is human umbilical vein endothelial cells. Set-up: method as in doi:10.1039/C6RA19212B. The conditions noted are these: human umbilical vein endothelial cells in zebrafish; cited from earlier work.
Details of data set [5]: method as in PMID 26771134. As to conditions: rat plasma, oral Radix glycyrrhizae or combination of Radix glycyrrhizae and Ramulus cinnamomi; cited from earlier work.
On the set-up of data set [6]: method as in PMID 25943824. As to conditions: active ingredients of TMYX with high R values; cited from earlier work.
[7] abbreviates: high QC: spiked 2000 ng/mL glycyrrhizic acid, 1000 liquiritin, 200 emodin, 100 isoliquiritigenin.
[8] abbreviates: low QC: spiked 20 ng/mL glycyrrhizic acid, 10 liquiritin, 2 emodin, 1 isoliquiritigenin.
[9] abbreviates: medium QC: spiked 200 ng/mL glycyrrhizic acid, 100 liquiritin, 20 emodin, 10 isoliquiritigenin.

The structures appear in SMILES notation. Values joined by “and” are separate entries in the source; they are usually repeats but may differ in a detail not shown here. Identical values can stand only once.

Consider `Cc1cc(O)c2c(c1)C(=O)c1cc(O)cc(O)c1C2=O` [emodin], for which, in data set [1], the AUC(0-inf) was found to be 561 ± 192 ng·h/mL, the half-life is 4.21 ± 2.63 h, the AUC was found to be 476 ± 121 ng·h/mL and the k el was 0.000108 s⁻¹. Moreover, in data set [1], the “C max1” value was 88.0 ± 37.5 ng/mL and the “T max1” value was 0.32 ± 0.14 h. Further, in data set [2] (setting [7]), the “Measured Concentration, auto-sampler for 12 h” value worked out at 200.50 ± 11.66 ng/mL; the “Measured Concentration, -70°C for 14 days” value stood at 185.45 ± 0.98 ng/mL; the “Measured Concentration, room temperature for 6 h” value (from here on “Measured Concentration … for 6 h”) was 207.49 ± 1.27 ng/mL; the “Measured Concentration, three freeze-thaw cycles” value was found to be 197.74 ± 5.65 ng/mL. In data set [2] (setting [8]), the “Measured Concentration, auto-sampler for 12 h” value came out at 1.93 ± 0.02 ng/mL; the “Measured Concentration, -70°C for 14 days” value worked out at 1.86 ± 0.03 ng/mL; the “Measured Concentration … for 6 h” value was determined as 1.95 ± 0.05 ng/mL; the “Measured Concentration, three freeze-thaw cycles” value stood at 2.00 ± 0.02 ng/mL. Also, in data set [2] (setting [9]), the “Measured Concentration, auto-sampler for 12 h” value came to 19.88 ± 1.81 ng/mL; the “Measured Concentration, -70°C for 14 days” value was 18.79 ± 0.18 ng/mL; the “Measured Concentration … for 6 h” value was 21.14 ± 0.99 ng/mL; the “Measured Concentration, three freeze-thaw cycles” value is 19.21 ± 0.33 ng/mL. Further, the “peaks in plasma profile” value in data set [3] is given as “one peak”.

In the case of `CC(C)=CCc1cc(-c2oc3cc(O)c(CC=C(C)C)c(O)c3c(=O)c2O)ccc1O` [glyasperin A], in data set [4], the proliferation and angiogenesis result is “promote proliferation and angiogenesis”.

`COc1c(CC=C(C)C)c(O)cc2oc(=O)c(-c3ccc(O)cc3O)cc12` [glycycoumarin]: the proliferation and angiogenesis entry in data set [4] is “promote proliferation and angiogenesis”.

For `CC1(C)[C@@H](O[C@H]2O[C@H](C(=O)O)[C@@H](O)[C@H](O)[C@H]2O[C@@H]2O[C@H](C(=O)O)[C@@H](O)[C@H](O)[C@H]2O)CC[C@]2(C)[C@H]3C(=O)C=C4[C@@H]5C[C@@](C)(C(=O)O)CC[C@]5(C)CC[C@@]4(C)[C@]3(C)CC[C@@H]12` [glycyrrhizic acid], in data set [1], the AUC(0-inf) was 17300 ± 11000 ng·h/mL, the half-life was 18.2 ± 9.61 h, the AUC is 12700 ± 5060 ng·h/mL and the k el was 1.39e-05 s⁻¹. Further, in data set [1], the “peaks in the mean plasma concentration-time profile” value is recorded as “double peaks”; the “C max1” value amounted to 351.7 ± 347.4 ng/mL; the “T max1” value is 2.13 h and 2.13 ± 1.44 h; the “C max2” value turned out to be 476.1 ± 146.0 ng/mL. Also, in data set [1], the “T max2” value is 17.67 h and 17.67 ± 10.31 h. Moreover, in data set [1] (48 h after oral TMYX extract 8.3 g/kg), the “detection in vivo at 48 h” value is reported as “can still be detected in vivo at 48 h”. Also, in data set [2] (setting [7]), the “Measured Concentration, auto-sampler for 12 h” value worked out at 1884.66 ± 9.26 ng/mL; the “Measured Concentration, -70°C for 14 days” value worked out at 1834.54 ± 29.34 ng/mL; the “Measured Concentration … for 6 h” value was found to be 2099.10 ± 8.92 ng/mL; the “Measured Concentration, three freeze-thaw cycles” value was 1869.00 ± 42.55 ng/mL. In addition, in data set [2] (setting [8]), the “Measured Concentration, auto-sampler for 12 h” value was 19.25 ± 0.34 ng/mL; the “Measured Concentration, -70°C for 14 days” value was found to be 18.77 ± 0.09 ng/mL; the “Measured Concentration … for 6 h” value came to 20.49 ± 0.79 ng/mL; the “Measured Concentration, three freeze-thaw cycles” value is 19.30 ± 0.20 ng/mL. Also, in data set [2] (setting [9]), the “Measured Concentration, auto-sampler for 12 h” value was 200.96 ± 3.93 ng/mL; the “Measured Concentration, -70°C for 14 days” value was determined as 200.33 ± 2.98 ng/mL; the “Measured Concentration … for 6 h” value stood at 203.22 ± 3.32 ng/mL; the “Measured Concentration, three freeze-thaw cycles” value came out at 188.63 ± 3.57 ng/mL. Also, the “peaks in plasma concentration-time profile” value in data set [5] was “One peak”. The antiinflammatory effects entry in data set [6] is listed as “exert antiinflammatory effects in a dose-dependent manner”.

On to `CC(C)=CCc1c(O)ccc(-c2coc3cc(O)cc(O)c3c2=O)c1O` [licoisoflavone A], for which the proliferation and angiogenesis result in data set [4] was “promote proliferation and angiogenesis”.

As to `COc1cc2c(c(OC)c1CC=C(C)C)C(=O)[C@H](c1ccc(O)c(CC=C(C)C)c1O)CO2` [licorisoflavan A], the proliferation and angiogenesis entry in data set [4] was “promote proliferation and angiogenesis”.

For `O=C1C[C@@H](c2ccc(O)cc2)Oc2cc(O)ccc21` [liquiritigenin], in data set [1], the AUC(0-inf) was 333 ± 142 ng·h/mL, the half-life is 12.7 ± 7.04 h, the exposure (AUC) came to 315 ± 130 ng·h/mL and the k el is 0.000139 s⁻¹. In data set [1], the “peaks in the mean plasma concentration-time profile” value was “double peaks”; the “C max1” value turned out to be 37.8 ± 24.1 ng/mL; the “T max1” value was 0.20 h and 0.20 ± 0.07 h; the “C max2” value came out at 21.0 ± 15.3 ng/mL. Moreover, the “T max2” value in data set [1] is 7.20 h and 7.20 ± 3.35 h. In data set [2] (setting [7]), the “Measured Concentration, auto-sampler for 12 h” value worked out at 92.65 ± 0.68 ng/mL; the “Measured Concentration, -70°C for 14 days” value is 91.88 ± 0.86 ng/mL; the “Measured Concentration … for 6 h” value was found to be 112.69 ± 1.30 ng/mL; the “Measured Concentration, three freeze-thaw cycles” value came to 92.59 ± 0.63 ng/mL. In data set [2] (setting [8]), the “Measured Concentration, auto-sampler for 12 h” value came to 0.87 ± 0.01 ng/mL; the “Measured Concentration, -70°C for 14 days” value is 0.88 ± 0.02 ng/mL; the “Measured Concentration … for 6 h” value was determined as 0.87 ± 0.01 ng/mL; the “Measured Concentration, three freeze-thaw cycles” value amounted to 0.89 ± 0.02 ng/mL. For the same compound, in data set [2] (setting [9]), the “Measured Concentration, auto-sampler for 12 h” value is 8.63 ± 0.23 ng/mL; the “Measured Concentration, -70°C for 14 days” value worked out at 9.26 ± 0.08 ng/mL; the “Measured Concentration … for 6 h” value stood at 10.82 ± 0.58 ng/mL; the “Measured Concentration, three freeze-thaw cycles” value was determined as 8.99 ± 0.07 ng/mL. Further, the “peaks in plasma concentration-time profile” value in data set [5] is “One peak”.

As a reminder, the AUC(0-inf) is the area under the concentration-time curve extrapolated to infinity. The term half-life denotes how long it takes for the measured level to halve. High values mean slow decline, low ones rapid decline. In general, AUC refers to concentration integrated over time.
